Values joined by “and” are separate entries in the source; they are usually repeats but may differ in a detail not shown here. Identical values can stand only once.
Key:
Solubility in DMSO = type: physicochemical
[1] = test system: EC electron transport chain; assay: Electron transport activity (NADH-driven H+ pumping, ACMA quenching), E. coli DK8/pASH20 vesicles; type: biochemical, Escherichia coli; conditions: for inhibition of EC ETC-driven H+ pumping, in words: 0-64 µg/mL, Figure S2; for Inhibition of the EC electron transport chain IC50: EC (DK8/pASH20) vesicles
Description: (§1) Determination of electron transport activity. In an opaque black 96-well plate, inverted membrane
(§2) vesicles from PA or E. coli DK8 pASH20 were added to HMK buffer containing 0.3 µg/mL 9-amino-6-chloro-
(§3) 2-methoxyacridine (ACMA) and 0-64 µg/mL test compound in DMSO. After measurement of baseline
(§4) ACMA fluorescence for 60 s, redox-driven H+ pumping was initiated by addition of NADH to 0.8 mM, and
(§5) fluorescence quenching was monitored for 120 s before addition of nigericin to 0.5 µg/mL. Relative
(§6) activity is reported as the minimum fluorescence value normalized to the maximum fluorescence value
(§7) following addition of nigericin. […]

[2] = test system: P. aeruginosa efflux knockout GKCW120 (PΔ6); assay: Antimicrobial susceptibility (broth microdilution), PΔ6 efflux knockout; type: cell-based, Pseudomonas aeruginosa; conditions: for Antibacterial activity screening result, P∆6: at 128 µg/mL in DMSO; for antibacterial activity (MIC) PΔ6: n = 3, >85% reduction in growth at OD 590 nm; for antibacterial activity in words, PΔ6: summary of Table 1
Description: (§8) The following are general steps, unless otherwise noted. All steps were completed using aseptic techniques. All media and glassware were sterilized via an autoclave at 121 °C for 60 min. All agitation occurred at 160 rpm in a temperature-controlled console shaker (Excella E25) at 37 °C. Full-strength tryptic soy broth (TSB) was made by dissolving 30 g of BD Bacto TSB powder in 1 L of deionized water. Purchased and acquired bacterial strains used were E. coli (ATCC 25922), P. aeruginosa (ATCC 9027), drug-resistant P. aeruginosa from ATCC Panel MP-23 (BAA 2108, BAA 2109, BAA 2110), and P. aeruginosa efflux knockout GKCW120 (PΔ6)[6] provided by Zgurskaya and co-workers at the University of Oklahoma.
(§9) Susceptibility testing was performed in biological triplicate using the broth microdilution method as outlined by the Clinical and Laboratory Standards Institute. […] Briefly, to each well, 1 μL of compound in DMSO, 89 μL of TSB, and 10 μL of bacterial inoculum, grown from a single colony in 10 mL of TSB for 4–6 h, were added. After incubation for 12–15 h at 37 °C, absorbance at 590 nm was read on a Biotek Synergy HTX Multimode plate reader. Data were processed by background subtracting the media absorbance and then normalizing the data to full bacterial growth with the vehicle only. MIC is defined as the lowest concentration of antibiotic or antibiotic/adjuvant combination that achieves ≥85% growth inhibition, which corresponds to no visible growth.
(§10) Initial antibacterial activity screen of compounds 4, 5, and S1-S6
(§11) Compounds 4, 5, and S1-S6 were screened for initial antibiotic activity against a susceptible laboratory strain of EC (designated EC 25922), and non-virulent, biofilm forming strain of PA (designated PA 9027), and PD6 (efflux knockout strain6) at 128 µg/mL in DMSO. Sterilization and Antimicrobial Susceptibility Assay procedures utilized were the same as described in the methods.
(§12) Table S1. Antibacterial activity screening results for compounds 4, 5, and S1-S6 at 128 µg/mL
(§13) Table S1. Antibacterial activity screening results for compounds 4, 5, and S1-S6 at 128 µg/mL.

[3] = target: T1, PA ATP synthase expressed in E. coli DK8/pASH20 (Pseudomonas aeruginosa, UniProt Q9HT15); assay: NADH-driven ATP synthesis inhibition, DK8/pASH20 membrane vesicles; type: biochemical; conditions: for IC50: ATP synthesis IC50, DK8/pASH20 vesicles, wild-type PA ATP synthase in E. coli DK8, NADH-driven, end point luminescence assay; for Hill coefficient of dose response fit, DK8/pASH20 vesicles: inhibition of ATP synthesis activity
T1 construct: expressed in transfected cells; host or cells: E. coli K-12 DK8 (lacks its own ATP synthase) transformed with pASH20 (pBR322 derivative)
Description: (§14) P. aeruginosa (ATCC 9027) was streaked onto a 10% TSB agar plate and incubated at room temperature for 72 h. A single colony was resuspended in 100 μL of H2O, and 5 μL was used as the DNA template for PCR with Q5 polymerase (NEB) and […] each of forward and reverse primers. Primers were complementary to regions flanking the atp operon and included sequences for HindIII and NdeI restriction sites (see the SI for primer sequences). The resulting 6.9 kbp DNA fragment was digested with HindIII and NdeI and ligated into digested vector pBR322 (New England Biolabs). The resultant pASH20(-i) plasmid contains a partial atpI gene. To complete the atpI gene, the HindII-XhoI fragment of pASH20(-i) was replaced with a synthetic fragment with a complete atpI (Twist Bioscience) to yield pASH20. The sequence of the entire operon was verified by Sanger DNA sequencing through the ligation sites. Subunit c mutations were introduced by exchanging the XhoI-BamHI fragment containing atpE with a synthetic fragment containing mutated atpE (Twist Bioscience).
(§15) Vesicles were prepared from P. aeruginosa and transformed E. coli cells as previously described.[22] Briefly, cells were grown in LB liquid medium at 37 °C with shaking and harvested by centrifugation after 7 h of growth. Cultures of transformant E. coli included 100 μg/mL ampicillin. Cells were disrupted in TMG buffer (50 mM Tris-HCl, MgCl2, 10% (v/v) glycerol, pH 7.5) using an Avestin B15 homogenizer at 19,000 psi. After unbroken cells and debris were cleared by centrifugation at 9000g, inverted vesicles were collected by centrifugation at 193,000g, resuspended in TMG buffer, and stored at −80 °C. Protein concentrations were determined using a modified Lowry assay.[25]
(§16) Continuous ATP synthesis activity of inverted membrane vesicles was measured using a luciferin/luciferase luminescence assay as previously described.[22] Inhibition of ATP synthesis activity by test compounds was determined using an end point assay essentially as previously described.[18],[26] In this assay, the synthesis reaction was initiated by 2.5 mM NADH, proceeded for 10 min, and was stopped with 1% trichloroacetic acid, 2 mM CCCP, and 10 mM EDTA. Samples from each reaction were diluted 500-fold prior to the addition of luciferase since quinoline compounds are known to inhibit luciferase.[27] This dilution was sufficient to minimize inhibition of luciferase (Figure S4). Each replicate set included a positive control containing DMSO with no compound and a negative control containing carbonyl cyanide m-chlorophenyl hydrazone. Luminescence values were corrected for the background by subtracting the negative control and then normalized to the positive control within the same replicate. Dose–response curves were fit using eq 1, where activity is the relative ATP synthesis activity, [I] is the concentration of inhibitor in μg/mL, and n is the Hill coefficient. [drawing 1] 1

[4] = target: T2, PA ATP synthase cIle65Phe mutant (Pseudomonas aeruginosa, UniProt Q9HT15, I65F); assay: NADH-driven ATP synthesis inhibition, DK8/pASH20 cI65F membrane vesicles; type: biochemical; conditions: for Hill coefficient of dose response fit, DK8/pASH20 cI65F vesicles: inhibition of ATP synthesis activity
T2 construct: expressed in transfected cells; host or cells: E. coli K-12 DK8 transformed with pASH20 carrying mutated atpE
Description: as §14, §15, §16

[5] = test system: PA electron transport chain; assay: Electron transport activity (NADH-driven H+ pumping, ACMA quenching), PA vesicles; type: biochemical, Pseudomonas aeruginosa; conditions: for inhibition of PA ETC-driven H+ pumping, in words: 0-64 µg/mL, Figure S2; for Inhibition of the PA electron transport chain IC50: PA vesicles
Description: as §1, §2, §3, §4, §5, §6, §7

[6] = test system: P. aeruginosa (ATCC 9027); assay: Antimicrobial susceptibility (broth microdilution), PA 9027; type: cell-based, Pseudomonas aeruginosa; conditions: for MIC: Pseudomonas aeruginosa, ATCC9027, read-out: antibacterial activity (MIC) PA 9027; for antibacterial activity in words, PA 9027: summary of Table 1
Description: as §8, §9, §10, §11, §12, §13

| SMILES | solubility in dimethyl sulfoxide (DMSO) (Solubility in DMSO; at 128 μg/mL) | solubility in dimethyl sulfoxide (DMSO) (Solubility in DMSO; at 256 μg/mL) | inhibition of EC ETC-driven H+ pumping, in words [1] | Inhibition of the EC electron transport chain IC50 [1] [µg/mL] | Antibacterial activity screening result, P∆6 [2] | antibacterial activity (MIC) PΔ6 [2] [µg/mL] | antibacterial activity in words, PΔ6 [2] | IC50 [3] | Hill coefficient of dose response fit, DK8/pASH20 vesicles [3] | IC50 [4] [µM] | Hill coefficient of dose response fit, DK8/pASH20 cI65F vesicles [4] | inhibition of PA ETC-driven H+ pumping, in words [5] | Inhibition of the PA electron transport chain IC50 [5] [µg/mL] | MIC [6] [µg/mL] | antibacterial activity in words, PA 9027 [6] | fold reduction in IC50, cIle65Phe mutant relative to wild type ([4]; ATP synthesis inhibition, DK8/pASH20 vesicles) |
| --- | --- | --- | --- | --- | --- | --- | --- | --- | --- | --- | --- | --- | --- | --- | --- | --- |
| CN(C)Cc1ccc(CNCc2cc3ccccc3nc2SCc2ccccc2)cc1 [Compound 5, 1-(4-((((2-(Benzylthio)quinolin-3-yl)methyl)amino)methyl)phenyl)-N,N-dimethylmethanamine] | very soluble | partially soluble | mildly inhibited | >64 | I | 16 | more potent | 5.38 µM | 1.3 | 8.18 | 1.8 | some inhibition | 27 | > 128 | inactive |  |
| CSc1nc2ccccc2cc1CNCc1ccc(CN(C)C)cc1 [Compound 4, N,N-Dimethyl-1-(4-((((2-(methylthio)quinolin-3-yl)methyl)amino)methyl)phenyl)methanamine] | very soluble | fully soluble | mildly inhibited | 61 | I | 64 to 128 | weakly inhibit | 86.2 µM and 85.3 µM | 1.0 | 12.8 | 1.4 | some inhibition | 29 | > 256 | inactive | greater than 6 fold |

— article PMC10714390, “Quinoline Compounds Targeting the c-Ring of ATP Synthase Inhibit Drug-Resistant Pseudomonas aeruginosa” (ACS Infectious Diseases, 2023)
